Laboratory results published in ChEMBL document CHEMBL1150018, “New reagents for controlled release of nitric oxide. Structure-stability relationships” (Bioorg Med Chem Lett, 1996).

Legend:
Format in all cases: ADME
[1] = Rate of decomposition in aqueous solution (pH 8.0, 30 degree Celsius) at 2.6 min; details: buffer, pH 8, 156 s
[2] = Half life was determined; details: rat
[3] = Kinetic constant log k was determined
[4] = Rate of decomposition in aqueous solution (pH 8.0, 30 degree Celsius) at 580 min; details: buffer, pH 8, 580 min
[5] = Rate of decomposition in aqueous solution (pH 8.0, 30 degree Celsius) at 150 min; details: buffer, pH 8, 2.5 h
[6] = Rate of decomposition in aqueous solution (pH 8.0, 30 degree Celsius) at 1500 min; details: buffer, pH 8, 25 h
[7] = Rate of decomposition in aqueous solution (pH 8.0, 30 degree Celsius) at 690 min; details: buffer, pH 8, 11.5 h
[8] = Rate of decomposition in aqueous solution (pH 8.0, 30 degree Celsius) at 84 min; details: buffer, pH 8, 1.4 h
[9] = Rate of decomposition in aqueous solution (pH 8.0, 30 degree Celsius) at 87 min; details: buffer, pH 8, 1.45 h
[10] = Rate of decomposition in aqueous solution (pH 8.0, 30 degree Celsius) at 107 min; details: buffer, pH 8, 107 min
[11] = Rate of decomposition in aqueous solution (pH 8.0, 30 degree Celsius) at 190 min; details: buffer, pH 8, 190 min
[12] = Rate of decomposition in aqueous solution (pH 8.0, 30 degree Celsius) at 1800 min; details: buffer, pH 8, 30 h
[13] = Rate of decomposition in aqueous solution (pH 8.0, 30 degree Celsius) at 2900 min; details: buffer, pH 8, 2900 min
[14] = Rate of decomposition in aqueous solution (pH 8.0, 30 degree Centigrade) at 5.3 min; details: buffer, pH 8, 318 s
[15] = Rate of decomposition in aqueous solution (pH 8.0, 30 degree Celsius) at 35 min; details: buffer, pH 8, 35 min
[16] = Rate of decomposition in aqueous solution (pH 8.0, 30 degree Celsius) at 270 min; details: buffer, pH 8, 4.5 h
[17] = Rate of decomposition in aqueous solution(pH 8.0, 30 degree Celsius)at 350 min; details: buffer, pH 8, 350 min
[18] = Rate of decomposition in aqueous solution (pH 8.0, 30 degree Celsius) at 350 min; details: buffer, pH 8, 350 min
[19] = Rate of decomposition in aqueous solution (pH 8.0, 30 degree Celsius) at 86 min; details: buffer, pH 8, 86 min
[20] = Rate of decomposition in aqueous solution (pH 8.0, 30 degree Celsius) at 46 min; details: buffer, pH 8, 46 min

half-life [2] [h] | Log k [3] | Compound | other results
9.67 | -2.921 | CC(C)/C(=C\C(CNC(=O)c1cccnc1)=N\O)C(C)[N+](=O)[O-] (stereo unspecified) | k [4]: 0.0012 min⁻¹
2.5 | -2.347 | CC/C(=C\C(=N\O)C(N)=O)C(CC)[N+](=O)[O-] (stereo unspecified) | k [5]: 0.0045 min⁻¹
0.0883 | -0.886 | COCC(/C(C)=C/C(CNC(=O)c1cccnc1)=N/O)[N+](=O)[O-] (stereo unspecified) | k [14]: 0.13 min⁻¹
0.583 | – | NC(=O)C(/C=C1\CCCCC1[N+](=O)[O-])=N\O (stereo unspecified) | k [15]: 0.02 min⁻¹
4.5 | -2.585 | CC/C(=C\C(CNC(C)=O)=N\O)C(CC)[N+](=O)[O-] (stereo unspecified) | k [16]: 0.0026 min⁻¹
5.83 | -2.699 | CCC(/C(C)=C/C(CNC(=O)c1cccnc1)=N/O)[N+](=O)[O-] (stereo unspecified) | k [17]: 0.002 min⁻¹
0.767 | -1.824 | CC/C(=C\C(=N\O)C(N)=O)C(C)[N+](=O)[O-] (stereo unspecified) | k [20]: 0.00025 s⁻¹

The next lines start with the compound.

Compound | half-life [2] [h] | Log k [3] | other results
COCC(/C(C)=C/C(=N/O)C(N)=O)[N+](=O)[O-] (stereo unspecified) | 0.0433 | 0.569 | k [1]: 0.27 min⁻¹
CC/C(=C\C(CNC(C)=O)=N\O)C(C(C)C)[N+](=O)[O-] (stereo unspecified) | 25 | -3.337 | k [6]: 0.00046 min⁻¹
CC/C(=C\C(=N\O)C(N)=O)C(C(C)C)[N+](=O)[O-] (stereo unspecified) | 11.5 | -3 | k [7]: 0.001 min⁻¹
O=C(NCC(/C=C1\CCCCC1[N+](=O)[O-])=N\O)c1cccnc1 (stereo unspecified) | 1.4 | – | k [8]: 0.0083 min⁻¹
CC(=O)NCC(/C=C1\CCCCC1[N+](=O)[O-])=N\O (stereo unspecified) | 1.45 | – | k [9]: 0.008 min⁻¹
CC/C(=C\C(CNC(=O)c1cccnc1)=N\O)C(C)[N+](=O)[O-] (stereo unspecified) | 1.78 | -2.187 | k [10]: 0.0065 min⁻¹
CC(C)/C(=C\C(=N\O)C(N)=O)C(C)[N+](=O)[O-] (stereo unspecified) | 3.17 | -2.432 | k [11]: 0.0037 min⁻¹
CC/C(=C\C(CNC(=O)c1cccnc1)=N\O)C(C(C)C)[N+](=O)[O-] (stereo unspecified) | 30 | -3.42 | k [12]: 0.00038 min⁻¹
CC/C(=C\C(=N\O)C(N)=O)C([N+](=O)[O-])C(C)(C)C (stereo unspecified) | 48.3 | -3.62 | k [13]: 0.00024 min⁻¹
CC/C(=C\C(CNC(=O)c1cccnc1)=N\O)C(CC)[N+](=O)[O-] (stereo unspecified) | 5.83 | -2.699 | k [18]: 0.002 min⁻¹
CC/C(=C\C(CNC(C)=O)=N\O)C(C)[N+](=O)[O-] (stereo unspecified) | 1.43 | -2.092 | k [19]: 0.0081 min⁻¹
